Test results published in patent US20220062233A1 (The Board of Trustees of the Leland Stanford Junior …, priority 2018, published 2022).

Legend:
mutant HTT [1] = experiment: Mutant HTT assay in lymphoblastoid cells (LBC), Western blot; format: cell-based, human; conditions: read-out: LBC IC20 (nM) mHTT, 3 days compound treatment
Description: (§1) B. Mutant and Wild-Type HTT Assay in Lymphoblastoid Cells (LBC)
(§2) a. Cell Culturing and Compound Treatment
(§3) Lymphoblastoid cells derived from a Huntington's disease patient with 250 CAG repeats in the mutant HTT allele (GM14044 from Coriell Institute) were cultured in RPMI 1640 (Corning Cellgro, 10-040-CV) containing fetal bovine serum (Atlanta Biologicals, S11150). 4×10^5 cells were seeded on a 24-well plate and incubated with testing compound for 3 days. The cell suspension was then transferred to a 1.5 ml Eppendorf tube. Cells were collected by centrifugation and washed once with PBS. After all liquid was removed, the cell pellet was placed at −80° C. for at least 10 minutes. Lysis buffer [30 mM Tris-HCl (pH 8.0), 5 mM NaCl, 0.1% Triton X-100] with the proteinase inhibitor cocktail (P8340 from Sigma-Aldrich) was then added to the cells. Following centrifugation (14 k rpm for 15 min at 4° C.), the supernatant was collected. The protein concentrations were determined by BCA assay (Pierce, ThermoFisher).
(§4) Equal amounts of protein were loaded onto 4-12% gel (Invitrogen, WG1403A). After electrophoresis, the gels were transferred to nitrocellulose membranes by wet transfer at 72V for 3 hrs. […] The protein levels of mutant HTT, wild-type HTT, TBP, and tubulin were determined by immunoblotting with anti-polyQ specific antibody (clone MW1), anti-Huntingtin antibody (Abcam, ab45169), anti-TBP antibody (Sigma, T1827) and anti-alpha tubulin antibody (Sigma, T9026). Blots were imaged on a Li-Cor Odyssey infrared imager. The band intensities were determined by Li-Cor Odyssey software.

mutant HTT [2] = experiment: Mutant HTT assay in induced pluripotent stem cells (iPSC); format: cell-based, human; conditions: HD patient iPSCs, one day incubation, read-out: iPSC IC20 (nM) mHTT
Description: C. Mutant HTT Assay in Induced Pluripotent Stem Cells (iPSC) a. Cell Culturing and Compound Treatment
Huntington's disease patient iPSCs (ND50036 from NINDS) were detached into single cells by Accutase (25058CI from Corning), counted and plated on a 24-well plate coated with Matrigel (354277 from Corning) at density of 7,000 cells/well. After 48 hrs, compounds were added to the cell culture medium mTeSR1 (85850 from StemCell Technologies) and the cells were incubated for one day. The medium was then removed, and the cells were washed with PBS. After all liquid was removed, the plate was placed at −80° C. overnight. Lysis buffer [30 mM Tris-HCl (pH 8.0), 5 mM NaCl, 0.1% Triton X-100] with the complete proteinase inhibitor cocktail (5892791001 from Sigma-Aldrich) was then added to the cells. Cell samples were lysed on an orbital plate shaker at 4° C. at 700 rpm for 30 min. The supernatants from spinning (14 k rpm for 10 min) were collected. The protein concentrations were determined by BCA assay (23225 from Pierce, ThermoFisher). […]
b. Detection of Mutant HTT Protein
Equal amounts of protein lysate collected from each sample were added to a 96-well plate that had been coated with a human HTT specific monoclonal antibody. After washing away any unbound substances, a biotinylated anti-human mutant HTT specific detection antibody was added. Streptavidin-horseradish peroxidase was subsequently added, followed by TMB Substrate Solution, which yielded a blue product that turns yellow when the Stop Solution was added. The intensity of the color measured was in proportion to the amount of mutant HTT bound in the initial step. The mutant HTT values are then interpolated from a standard curve.

M2-8 cells = experiment: M2-8 Cell viability Assay; format: cell-based; conditions: at the concentration of 1000 nM
[3] = molecular target: T1, interaction between Supt4h and NGN (subunit of Supt5h) (Homo sapiens, UniProt O00267+P63272); experiment: Split Gaussia luciferase complementation assay (M2-8 Luciferase); format: cell-based; conditions: M2-8 cells
T1 construct: expressed in transfected cells
Description: A. Split Gaussia Luciferase Complementation Assay […]
i: pNBR-X1-Supt4-Gluc1 and pNEBR-X1-NGN-Gluc2
The HA-Supt4h and Flag-NGN fragments are amplified by PCR using the plasmid pHA-Supt4h-YC and pFlag-NGN-YN and sub-cloned individually into pcDNA3.1-Gluc1 and pcDNA3.1-Gluc2 (described in “A highly sensitive protein-protein interaction assay based on Gaussia luciferase” published at Nat Methods. 2006 December; 3(12):977-9. Epub 2006 Nov. 12). Then HA-Supt4h-Gluc1 and Flag-NGN-Gluc2 are amplified by PCR and inserted to pNEBR-X1-Hygro (New England BioLabs), which contain RheoSwitch responsive element under the control of RheoSwitch ligand. […]
ii: pNEBR-X1-Supt4h-G1-NGN-G2
PCR products containing the sequence from 5XRE to polyA in pNEBR-X1-NGN-G2 are inserted to pNEBR-X1-Supt4h-G1 at Pcil site to generate Supt4h-G1 and NGN-G2 bidirectional under their own RheoSwitch responsive element and polyA in the same plasmid. […]
b. Stable Cloned Cell Line i: 293-R1 is a cloned cell line which is engineered to constitutively express RSL1 receptor/activator by transfecting HEK 293 cells with pNEBR-R1 plasmid (New England BioLabs) and selected with blasticidin. […]
ii: M2-8 is a cloned 293-R1 cell which can inducibly express pNEBR-X1-Supt4h-G1-NGN-G2 by addition of RSL1. Two point mutations ([…] and M110I) are introduced to the GL1 and GL2 for better stability according to “A high-throughput cell-based Gaussia luciferase reporter assay for identifying modulators of fibulin-3 secretion” published in J Biomol Screen. 2013 July; 18(6):647-58. The cell line is selected by hygromycin. […]
c. Cell Culture and Transfection Condition
All the HEK-293 cells and derivative clones are maintained in DMEM containing 10% FBS plus corresponding antibiotics (250 μg/ml hygromycin B, 10 μg/ml blasticidin or both) at 37° C., 5% CO2. All the transfections are done by using Lipofectamine 2000 (Invitrogen) according to the manufacturer's instructions. […]
d. Bioluminescence Assay from Cell Lysates
Plasmids harboring the Gluc1 and Gluc2 are co-transfected in a 1:1 ratio into 293-R1 cells plated on tissue culture treated 24-well plates using Lipofectamine 2000 according to the manufacturer's instructions. For stable M2-8 cells, the cells are directly plated into 96-well or 384-well white plates. Twenty-four hours later, RheoSwitch ligand with or without test compound is added to the cells for induction/drug treatment. After 24 hr, the cells are washed with PBS and the plate was stored at −20° C. overnight. Lysis buffer [30 mM Tris-HCl (pH 8.0) 5 mM NaCl, 0.1% Triton X-100] with 10 μg/ml native coelenterazine (Nanolight Technology) is then added to the cells at room temperature for one hour in the dark. After shaking for about 1 min, 40 μl of cell lysate are transferred to a white 96-well plate. For M2-8 in white micro plate, no transfer is needed. Signal intensities (integrated 100 ms) were read on Tecan Infinite M200 or M1000.
The split Gaussia luciferase complementation assay measures the interaction between Sup4h and NGN. NGN is the subunit of Supt5h that binds to Supt4h.

wild-type HTT = experiment: Wild-type HTT assay in lymphoblastoid cells (LBC), Western blot; format: cell-based, human; conditions: 3 days compound treatment, read-out: LBC IC20 (nM) wtHTT
Description: as §1, §2, §3, §4

[4] = test system: Lymphoblastoid cells (GM14044); experiment: LBC cell viability (Cell Titer-Glo); format: cell-based, human; conditions: at the concentration of IC20, 3-day compound treatment
Description: Cell viability was determined by Cell Titer-Glo reagent (Promega, PRG9243). After 3-day compound treatment, 15 μl of cell suspension was taken out from plate and incubated with 10 μl of CTG reagent. The values of reaction mixture were detected by Tecan.

[5] = test system: Huntington's disease patient iPSCs (ND50036); experiment: iPSC viability at IC20; format: cell-based, human; conditions: at the concentration of IC20

Row | Compound | IC20 (mutant HTT [1]) | IC20 (mutant HTT [2]; numeric bounds) | M2-8 Cell viability (M2-8 cells) | IC50 [3] | IC20 (wild-type HTT) | LBC viability at IC20 [4] | iPSC viability at IC20 [5] | IC20 (mutant HTT [2]; class symbols)
1 | COCC(N[C@@H]1CCCc2c1[nH]c1ccc(Br)cc21)c1ccc(C(C)(C)O)cc1 (single isomer, unassigned) [Compound 53] | > 1000 nM | > 100 nM | + (cell viability is greater than 50% at the concentration of 1000 nM) | 101 to 300 nM | > 500 nM | – | – | –
2 | Brc1ccc2[nH]c3c(c2c1)CCC[C@H]3NCc1cccc(I)c1 [Compound 41, (R)-6-bromo-N-(3-iodobenzyl)-2,3,4,9-tetrahydro-1H-carbazol-1-amine] | 101 to 300 nM | > 100 nM | + (cell viability is greater than 50% at the concentration of 1000 nM) | ≤ 100 nM | > 1000 nM | * (cell viability is greater than 60% at the concentration of IC20) | – | –
3 | OB(O)c1cccc(CN[C@@H]2CCCc3c2[nH]c2ccc(Br)cc32)c1 (single isomer, unassigned) [Compound 39] | > 1000 nM | > 100 nM | + (cell viability is greater than 50% at the concentration of 1000 nM) | ≤ 100 nM | > 1000 nM | – | – | –
4 | CC(C)(O)c1cccc(CN[C@@H]2CCCc3c2[nH]c2ccc(Br)cc32)c1 (single isomer, unassigned) [Compound 58] | 101 to 300 nM | > 100 nM | + (cell viability is greater than 50% at the concentration of 1000 nM) | 101 to 300 nM | > 1000 nM | * (cell viability is greater than 60% at the concentration of IC20) | – | –
5 | C=C(C)c1ccc(CN[C@@H]2CCCc3c2[nH]c2ccc(Br)cc32)s1 [Compound 68] | 101 to 300 nM | > 100 nM | + (cell viability is greater than 50% at the concentration of 1000 nM) | ≤ 100 nM | > 1000 nM | * (cell viability is greater than 60% at the concentration of IC20) | – | –
6 | Brc1ccc2[nH]c3c(c2c1)CCC[C@H]3NCc1cccnc1 [Compound 32, (R)-6-bromo-N-(pyridin-3-ylmethyl)-2,3,4,9-tetrahydro-1H-carbazol-1-amine] | < 100 nM | > 100 nM | + (cell viability is greater than 50% at the concentration of 1000 nM) | 101 to 300 nM | > 1000 nM | * (cell viability is greater than 60% at the concentration of IC20) | – | –
7 | Brc1ccc2[nH]c3c(c2n1)CCC[C@H]3NCc1ccccc1 [Compound 69] | – | – | + (cell viability is greater than 50% at the concentration of 1000 nM) | ≤ 100 nM | – | – | + (cell viability is greater than 75% at the concentration of IC20) | < 100 nM
8 | Brc1ccc2[nH]c3c(c2c1)CCC[C@H]3NCc1ccccn1 [Compound 33, (R)-6-bromo-N-(pyridin-2-ylmethyl)-2,3,4,9-tetrahydro-1H-carbazol-1-amine] | 301 to 1000 nM | > 100 nM | + (cell viability is greater than 50% at the concentration of 1000 nM) | 101 to 300 nM | > 1000 nM | * (cell viability is greater than 60% at the concentration of IC20) | – | –
9 | COC(=O)c1cccc(CN[C@@H]2CCCc3c2[nH]c2ccc(Br)cc32)c1 (single isomer, unassigned) [Compound 59] | 101 to 300 nM | > 100 nM | + (cell viability is greater than 50% at the concentration of 1000 nM) | 101 to 300 nM | > 1000 nM | * (cell viability is greater than 60% at the concentration of IC20) | – | –
10 | C#Cc1ccc2[nH]c3c(c2c1)CCC[C@H]3NCc1ccccc1 [Compound 5, (R)—N-benzyl-6-ethynyl-2,3,4,9-tetrahydro-1H-carbazol-1-amine] | < 100 nM | > 100 nM | + (cell viability is greater than 50% at the concentration of 1000 nM) | ≤ 100 nM | > 1000 nM | * (cell viability is greater than 60% at the concentration of IC20) | – | –
